Reference: patent US8680113B2, “BMI-1 protein expression modulators” (PTC Therapeutics, Inc., priority 2008, dated 2014)

Test system: Bmi-1
Assay: Sandwich ELISA Assay (Bmi-1 ELISA in HT-1080 cells)
Type: cell-based, human
How it was run: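 Lysate Bmi-1 was quantified against a recombinant GST-Bmi-1 standard (0-8000 pg/mL) by sandwich ELISA read at OD450 with OD570 reference. The ELISA used mouse monoclonal capture, rabbit anti-Bmi-1, HRP anti-rabbit IgG and TMB. Before lysis, HT-1080 cells seeded at 8000/well were exposed to compounds for 40-48 h at 37°C with 0.5% final DMSO.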

Row | IC50 | SMILES
1 | < 500 nM | COc1ccccc1Nc1nc(-c2c(C)nc3c(Br)cccn23)cs1 [Cpd 234, 4-(8-bromo-2-methylimidazo[1,2-a]pyridin-3-yl)-N-(2-methoxyphenyl)-1,3-thiazol-2-amine]
2 | < 500 nM | COc1ccc(Nc2nc(-c3c(C)nc4ccc(Br)cn34)cs2)cc1F [Cpd 104, 4-(6-bromo-2-methylimidazo[1,2-a]pyridin-3-yl)-N-(3-fluoro-4-methoxyphenyl)-1,3-thiazol-2-amine]
3 | < 500 nM | Cc1nc2ncccn2c1-c1nc(Nc2ccc(I)cc2)sc1C [Cpd 122, N-(4-iodophenyl)-5-methyl-4-(2-methylimidazo[1,2-a]pyrimidin-3-yl)-1,3-thiazol-2-amine]
4 | < 500 nM | Fc1ccc(Nc2nccc(-c3cnc4ccccn34)n2)cc1 [Cpd 248, N-(4-fluorophenyl)-4-(imidazo[1,2-a]pyridin-3-yl)pyrimidin-2-amine]
5 | < 500 nM | Cc1nc2ccc(F)cn2c1-c1csc(Nc2ccc(N(C)C)cc2)n1 [Cpd 157, N′-[4-(6-fluoro-2-methylimidazo[1,2-a]pyridin-3-yl)-1,3-thiazol-2-yl]-N,N-dimethylbenzene-1,4-diamine]
6 | < 500 nM | Cc1nc2c(Br)cccn2c1-c1csc(Nc2ccccc2)n1 [Cpd 231, 4-(8-bromo-2-methylimidazo[1,2-a]pyridin-3-yl)-N-phenyl-1,3-thiazol-2-amine]
7 | < 500 nM | CN(C)c1ccc(Nc2nccc(-c3cnc4ccccn34)n2)cc1 [Cpd 254, N′-[4-(imidazo[1,2-a]pyridin-3-yl)pyrimidin-2-yl]-N,N-dimethylbenzene-1,4-diamine]
8 | < 500 nM | Fc1ccc(Nc2nccc(-c3cnc4ncccn34)n2)cc1 [Cpd 268, N-(4-fluorophenyl)-4-(imidazo[1,2-a]pyrimidin-3-yl)pyrimidin-2-amine]
9 | < 500 nM | COc1ccc(Nc2nccc(-c3c(C)nc4ncccn34)n2)cc1 [Cpd 115, N-(4-methoxyphenyl)-4-(2-methylimidazo[1,2-a]pyrimidin-3-yl)pyrimidin-2-amine]
10 | < 500 nM | Ic1ccc(Nc2nc(-c3cnc4ccccn34)cs2)cc1 [Cpd 79, 4-(imidazo[1,2-a]pyridin-3-yl)-N-(4-iodophenyl)-1,3-thiazol-2-amine]
11 | < 500 nM | Cc1nc2ncccn2c1-c1ccnc(N(C)c2ccc(I)cc2)n1 [Cpd 125, N-(4-iodophenyl)-N-methyl-4-(2-methylimidazo[1,2-a]pyrimidin-3-yl)pyrimidin-2-amine]
12 | < 500 nM | Cc1nc2ccccn2c1-c1ccnc(Nc2ccc(C(=O)O)cc2)n1 [Cpd 196, 4-{[4-(2-methylimidazo[1,2-a]pyridin-3-yl)pyrimidin-2-yl]amino}benzoic acid]
13 | 500 to 1000 nM | COc1cc(Cl)c(Nc2nc(-c3c(C)nc4ncccn34)cs2)c(Cl)c1 [Cpd 19, N-(2,6-dichloro-4-methoxyphenyl)-4-(2-methylimidazo[1,2-a]pyrimidin-3-yl)thiazol-2-amine]
14 | < 500 nM | CCc1nc2ncccn2c1-c1csc(Nc2ccc3c(c2)OCO3)n1 [Cpd 151, N-(1,3-benzodioxol-5-yl)-4-(2-ethylimidazo[1,2-a]pyrimidin-3-yl)-1,3-thiazol-2-amine]
15 | < 500 nM | CCN(CC)c1ccc(Nc2nc(-c3c(C)nc4ccccn34)cs2)cc1 [Cpd 193, N,N-diethyl-N′-[4-(2-methylimidazo[1,2-a]pyridin-3-yl)-1,3-thiazol-2-yl]benzene-1,4-diamine]
16 | < 500 nM | Cc1nc2ccccn2c1-c1ccnc(Nc2cccc(O)c2)n1 [Cpd 190, 3-{[4-(2-methylimidazo[1,2-a]pyridin-3-yl)pyrimidin-2-yl]amino}phenol]
17 | < 500 nM | Cc1nc2c(C)cccn2c1-c1csc(Nc2ccc3c(c2)OCO3)n1 [Cpd 226, N-(1,3-benzodioxol-5-yl)-4-(2,8-dimethylimidazo[1,2-a]pyridin-3-yl)-1,3-thiazol-2-amine]
18 | < 500 nM | COc1ccc(Nc2nc(-c3c(C)nc4c(C)cccn34)cs2)cc1 [Cpd 222, 4-(2,8-dimethylimidazo[1,2-a]pyridin-3-yl)-N-(4-methoxyphenyl)-1,3-thiazol-2-amine]
19 | < 500 nM | Cc1nc2ncccn2c1-c1ccnc(Nc2ccc(I)cc2)n1 [Cpd 120, N-(4-iodophenyl)-4-(2-methylimidazo[1,2-a]pyrimidin-3-yl)pyrimidin-2-amine]
20 | < 500 nM | Cc1nc2c(O)cccn2c1-c1csc(Nc2ccc3c(c2)OCO3)n1 [Cpd 94, 3-[2-(1,3-benzodioxol-5-ylamino)-1,3-thiazol-4-yl]-2-methylimidazo[1,2-a]pyridin-8-ol]
21 | < 500 nM | COc1ccc(Nc2nc(-c3c(C)nc4ncccn34)cs2)cc1OC [Cpd 84, N-(3,4-dimethoxyphenyl)-4-(2-methylimidazo[1,2-a]pyrimidin-3-yl)-1,3-thiazol-2-amine]
22 | < 500 nM | Cc1ccc(Nc2nc(-c3c(C)nc4ccc(Cl)cn34)cs2)c(Br)c1 [Cpd 205, N-(2-bromo-4-methylphenyl)-4-(6-chloro-2-methylimidazo[1,2-a]pyridin-3-yl)-1,3-thiazol-2-amine]

Row | IC50 | SMILES
23 | < 500 nM | CC(=O)c1cccc(Nc2nc(-c3c(C)nc4ccc(Cl)cn34)cs2)c1 [Cpd 211, 1-(3-{[4-(6-chloro-2-methylimidazo[1,2-a]pyridin-3-yl)-1,3-thiazol-2-yl]amino}phenyl)ethanone]
24 | < 500 nM | CC(=O)c1ccc(Nc2nccc(-c3c(C)nc4ccccn34)n2)cc1 [Cpd 117, 1-(4-{[4-(2-methylimidazo[1,2-a]pyridin-3-yl)pyrimidin-2-yl]amino}phenyl)ethanone]
25 | 500 to 1000 nM | Ic1ccc(Nc2nc(-c3cnc4ncccn34)cs2)cc1 [Cpd 83, 4-(imidazo[1,2-a]pyrimidin-3-yl)-N-(4-iodophenyl)-1,3-thiazol-2-amine]
26 | < 500 nM | Cc1nc2ccc(Cl)cn2c1-c1csc(Nc2cccc(Cl)c2)n1 [Cpd 213, 4-(6-chloro-2-methylimidazo[1,2-a]pyridin-3-yl)-N-(3-chlorophenyl)-1,3-thiazol-2-amine]
27 | < 500 nM | CCOc1ccc(Nc2nccc(-c3c(C)nc4ncccn34)n2)cc1 [Cpd 116, N-(4-ethoxyphenyl)-4-(2-methylimidazo[1,2-a]pyrimidin-3-yl)pyrimidin-2-amine]
28 | < 500 nM | CCCc1nc2ncccn2c1-c1csc(Nc2ccccc2)n1 [Cpd 187, N-phenyl-4-(2-propylimidazo[1,2-a]pyrimidin-3-yl)-1,3-thiazol-2-amine]
29 | < 500 nM | COc1cc(F)c(Nc2nc(-c3c(C)nc4ccccn34)cs2)c(F)c1 [Cpd 57, N-(2,6-difluoro-4-methoxyphenyl)-4-(2-methylimidazo[1,2-a]pyridin-3-yl)-1,3-thiazol-2-amine]
30 | < 500 nM | COc1ccc(Nc2nc(-c3c(C)nc4ccc(F)cn34)cs2)cc1 [Cpd 160, 4-(6-fluoro-2-methylimidazo[1,2-a]pyridin-3-yl)-N-(4-methoxyphenyl)-1,3-thiazol-2-amine]
31 | < 500 nM | Cc1ccc2nc(C)c(-c3csc(Nc4ccc(N(C)C)cc4)n3)n2c1 [Cpd 70, N′-[4-(2,6-dimethylimidazo[1,2-a]pyridin-3-yl)-1,3-thiazol-2-yl]-N,N-dimethylbenzene-1,4-diamine]
32 | < 500 nM | Cc1ccn2c(-c3csc(Nc4ccc(Br)cc4)n3)c(C)nc2c1 [Cpd 68, N-(4-bromophenyl)-4-(2,7-dimethylimidazo[1,2-a]pyridin-3-yl)-1,3-thiazol-2-amine]
33 | < 500 nM | Cc1nc2c(Br)cccn2c1-c1csc(Nc2ccc(N(C)C)cc2)n1 [Cpd 227, N′-[4-(8-bromo-2-methylimidazo[1,2-a]pyridin-3-yl)-1,3-thiazol-2-yl]-N,N-dimethylbenzene-1,4-diamine]
34 | < 500 nM | CCCc1nc2ccccn2c1-c1csc(Nc2ccc(N(C)C)cc2)n1 [Cpd 176, N,N-dimethyl-N′-[4-(2-propylimidazo[1,2-a]pyridin-3-yl)-1,3-thiazol-2-yl]benzene-1,4-diamine]
35 | < 500 nM | Cc1nc2ncccn2c1-c1ccnc(Nc2ccc(N(C)C)cc2)n1 [Cpd 43, N,N-dimethyl-N′-[4-(2-methylimidazo[1,2-a]pyrimidin-3-yl)pyrimidin-2-yl]benzene-1,4-diamine]
36 | < 500 nM | Clc1cccc(Nc2nccc(-c3cnc4ccccn34)n2)c1 [Cpd 246, N-(3-chlorophenyl)-4-(imidazo[1,2-a]pyridin-3-yl)pyrimidin-2-amine]
37 | < 500 nM | COCCOc1ccc(Nc2nc(-c3c(C)nc4ccc(C)cn34)cs2)cc1 [Cpd 74, 4-(2,6-dimethylimidazo[1,2-a]pyridin-3-yl)-N-[4-(2-methoxyethoxy)phenyl]-1,3-thiazol-2-amine]
38 | < 500 nM | CC(=O)Nc1ccc(Nc2nc(-c3c(C)nc4ccc(Cl)cn34)cs2)cc1 [Cpd 97, N-(4-{[4-(6-chloro-2-methylimidazo[1,2-a]pyridin-3-yl)-1,3-thiazol-2-yl]amino}phenyl)acetamide]
39 | < 500 nM | COc1ccc(Nc2nc(-c3c(C)nc4ccc(C)cn34)cs2)cc1 [Cpd 71, 4-(2,6-dimethylimidazo[1,2-a]pyridin-3-yl)-N-(4-methoxyphenyl)-1,3-thiazol-2-amine]
40 | < 500 nM | CC(=O)Nc1ccc(Nc2nc(-c3c(C)nc4ccccn34)cs2)cc1 [Cpd 194, N-(4-{[4-(2-methylimidazo[1,2-a]pyridin-3-yl)-1,3-thiazol-2-yl]amino}phenyl)acetamide]
41 | < 500 nM | CCCc1nc2ncccn2c1-c1csc(Nc2ccc(I)cc2)n1 [Cpd 185, N-(4-iodophenyl)-4-(2-propylimidazo[1,2-a]pyrimidin-3-yl)-1,3-thiazol-2-amine]
42 | < 500 nM | Cc1nc2ccccn2c1-c1csc(Nc2ccc(Cl)cc2)n1 [Cpd 199, N-(4-chlorophenyl)-4-(2-methylimidazo[1,2-a]pyridin-3-yl)-1,3-thiazol-2-amine]
43 | < 500 nM | Fc1ccccc1Nc1nccc(-c2cnc3ncccn23)n1 [Cpd 266, N-(2-fluorophenyl)-4-(imidazo[1,2-a]pyrimidin-3-yl)pyrimidin-2-amine]

Row | SMILES | IC50
44 | Cc1nc2ccccn2c1-c1ccnc(Nc2ccc(Cl)cc2)n1 [Cpd 113, N-(4-chlorophenyl)-4-(2-methylimidazo[1,2-a]pyridin-3-yl)pyrimidin-2-amine] | < 500 nM
